Tests used:
Assay in all cases: KINOMEscan
Assay type in all cases: binding
Settings in all cases: 35 at 1 µM; read-out: % inhibition
[1] = target: T1, CSK (Homo sapiens, UniProt P41240)
T1 construct: purchased Eurofins DiscoverX (KINOMEscan)
Procedure: (§1) KinomeScan Assay on 35 was performed as previously described at EuroFins DiscoverX (Fremont, CA, USA).

[2] = target: T2, CDC2L5 (Homo sapiens, UniProt Q14004)
T2 construct: purchased Eurofins DiscoverX (KINOMEscan)
Procedure: as §1

[3] = target: T3, NEK2 (Homo sapiens, UniProt P51955)
T3 construct: purchased Eurofins DiscoverX (KINOMEscan)
Procedure: as §1

[4] = target: T4, AKT2 (Homo sapiens, UniProt P31751)
T4 construct: purchased Eurofins DiscoverX (KINOMEscan)
Procedure: as §1

[5] = target: T5, DMPK (Homo sapiens, UniProt Q09013)
T5 construct: purchased Eurofins DiscoverX (KINOMEscan)
Procedure: as §1

[6] = target: T6, RPS6KA5(Kin.Dom.2-C-terminal) (Homo sapiens, UniProt O75582)
T6 construct: RPS6KA5(Kin.Dom.2-C-terminal); purchased Eurofins DiscoverX (KINOMEscan)
T6 sequence (O75582 426-687 limits assumed): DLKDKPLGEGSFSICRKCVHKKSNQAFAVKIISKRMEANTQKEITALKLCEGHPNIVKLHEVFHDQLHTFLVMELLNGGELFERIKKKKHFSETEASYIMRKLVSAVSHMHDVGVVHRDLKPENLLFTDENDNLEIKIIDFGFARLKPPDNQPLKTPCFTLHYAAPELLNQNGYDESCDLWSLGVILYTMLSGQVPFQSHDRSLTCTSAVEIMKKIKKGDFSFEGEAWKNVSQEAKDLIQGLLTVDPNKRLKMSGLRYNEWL
Procedure: as §1

[7] = target: T7, MAP3K1 (Homo sapiens, UniProt Q13233)
T7 construct: purchased Eurofins DiscoverX (KINOMEscan)
Procedure: as §1

[8] = target: T8, CLK4 (Homo sapiens, UniProt Q9HAZ1)
T8 construct: purchased Eurofins DiscoverX (KINOMEscan)
Procedure: as §1

[9] = target: T9, CAMK1B (Homo sapiens, UniProt Q6P2M8)
T9 construct: purchased Eurofins DiscoverX (KINOMEscan)
Procedure: as §1

[10] = target: T10, TRKC (Homo sapiens, UniProt Q16288)
T10 construct: purchased Eurofins DiscoverX (KINOMEscan)
T10 sequence (Q16288 32-839): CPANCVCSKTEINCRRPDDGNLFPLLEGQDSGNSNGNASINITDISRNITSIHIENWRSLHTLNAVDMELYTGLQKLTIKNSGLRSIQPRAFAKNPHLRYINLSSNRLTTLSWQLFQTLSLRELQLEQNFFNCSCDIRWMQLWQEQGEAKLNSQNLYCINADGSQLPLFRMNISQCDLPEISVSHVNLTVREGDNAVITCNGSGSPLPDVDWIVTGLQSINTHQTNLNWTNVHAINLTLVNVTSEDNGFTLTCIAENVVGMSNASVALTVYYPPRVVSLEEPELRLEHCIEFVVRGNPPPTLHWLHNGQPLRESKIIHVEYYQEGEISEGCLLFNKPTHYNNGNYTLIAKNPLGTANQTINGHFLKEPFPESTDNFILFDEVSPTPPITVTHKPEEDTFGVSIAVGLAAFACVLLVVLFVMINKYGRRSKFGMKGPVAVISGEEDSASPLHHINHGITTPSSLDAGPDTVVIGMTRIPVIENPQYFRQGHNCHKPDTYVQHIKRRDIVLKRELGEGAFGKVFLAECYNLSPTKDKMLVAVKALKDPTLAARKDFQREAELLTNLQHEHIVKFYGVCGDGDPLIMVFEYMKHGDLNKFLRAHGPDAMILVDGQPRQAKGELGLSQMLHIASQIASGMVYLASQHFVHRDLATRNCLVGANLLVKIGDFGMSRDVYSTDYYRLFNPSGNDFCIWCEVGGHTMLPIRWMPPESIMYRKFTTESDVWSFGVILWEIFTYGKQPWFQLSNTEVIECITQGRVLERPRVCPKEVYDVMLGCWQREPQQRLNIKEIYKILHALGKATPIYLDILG
Procedure: as §1

[11] = target: T11, DYRK2 (Homo sapiens, UniProt Q92630)
T11 construct: purchased Eurofins DiscoverX (KINOMEscan)
T11 sequence (Q92630 whole entry): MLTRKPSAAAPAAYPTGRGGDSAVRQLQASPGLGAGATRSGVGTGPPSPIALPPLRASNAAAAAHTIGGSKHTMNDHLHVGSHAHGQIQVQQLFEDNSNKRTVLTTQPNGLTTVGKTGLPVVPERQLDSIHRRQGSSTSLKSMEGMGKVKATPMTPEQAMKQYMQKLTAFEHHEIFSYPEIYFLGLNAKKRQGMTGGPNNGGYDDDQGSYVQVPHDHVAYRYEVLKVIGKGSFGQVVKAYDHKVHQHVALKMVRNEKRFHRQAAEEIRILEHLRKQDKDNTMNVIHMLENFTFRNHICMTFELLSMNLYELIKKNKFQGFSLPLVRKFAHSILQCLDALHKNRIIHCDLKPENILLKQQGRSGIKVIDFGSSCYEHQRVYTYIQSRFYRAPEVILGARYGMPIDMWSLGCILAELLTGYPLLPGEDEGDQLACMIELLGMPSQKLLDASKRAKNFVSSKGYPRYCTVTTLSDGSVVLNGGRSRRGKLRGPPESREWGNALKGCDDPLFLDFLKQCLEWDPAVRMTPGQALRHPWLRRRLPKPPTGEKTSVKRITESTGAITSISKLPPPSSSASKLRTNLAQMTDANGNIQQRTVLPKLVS
Procedure: as §1

[12] = target: T12, PIKFYVE (Homo sapiens, UniProt Q9Y2I7)
T12 construct: purchased Eurofins DiscoverX (KINOMEscan)
Procedure: as §1

[13] = target: T13, OSR1 (Homo sapiens, UniProt O95747)
T13 construct: purchased Eurofins DiscoverX (KINOMEscan)
Procedure: as §1

[14] = target: T14, STK39 (Homo sapiens, UniProt Q9UEW8)
T14 construct: purchased Eurofins DiscoverX (KINOMEscan)
Procedure: as §1

[15] = target: T15, ABL1(Q252H)-nonphosphorylated (Homo sapiens, UniProt P00519, Q252H)
T15 construct: purchased Eurofins DiscoverX (KINOMEscan)
Procedure: as §1

[16] = target: T16, MAP4K2 (Homo sapiens, UniProt Q12851)
T16 construct: purchased Eurofins DiscoverX (KINOMEscan)
Procedure: as §1

[17] = target: T17, PIK3CA(I800L) (Homo sapiens, UniProt P42336, I800L)
T17 construct: purchased Eurofins DiscoverX (KINOMEscan)
Procedure: as §1

[18] = target: T18, RIOK2 (Homo sapiens, UniProt Q9BVS4)
T18 construct: purchased Eurofins DiscoverX (KINOMEscan)
Procedure: as §1

[19] = target: T19, RSK1(Kin.Dom.2-C-terminal) (Homo sapiens, UniProt Q15418)
T19 construct: RSK1(Kin.Dom.2-C-terminal); purchased Eurofins DiscoverX (KINOMEscan)
Procedure: as §1

[20] = target: T20, YSK4 (Homo sapiens, UniProt Q56UN5)
T20 construct: purchased Eurofins DiscoverX (KINOMEscan)
T20 sequence (Q56UN5 whole entry): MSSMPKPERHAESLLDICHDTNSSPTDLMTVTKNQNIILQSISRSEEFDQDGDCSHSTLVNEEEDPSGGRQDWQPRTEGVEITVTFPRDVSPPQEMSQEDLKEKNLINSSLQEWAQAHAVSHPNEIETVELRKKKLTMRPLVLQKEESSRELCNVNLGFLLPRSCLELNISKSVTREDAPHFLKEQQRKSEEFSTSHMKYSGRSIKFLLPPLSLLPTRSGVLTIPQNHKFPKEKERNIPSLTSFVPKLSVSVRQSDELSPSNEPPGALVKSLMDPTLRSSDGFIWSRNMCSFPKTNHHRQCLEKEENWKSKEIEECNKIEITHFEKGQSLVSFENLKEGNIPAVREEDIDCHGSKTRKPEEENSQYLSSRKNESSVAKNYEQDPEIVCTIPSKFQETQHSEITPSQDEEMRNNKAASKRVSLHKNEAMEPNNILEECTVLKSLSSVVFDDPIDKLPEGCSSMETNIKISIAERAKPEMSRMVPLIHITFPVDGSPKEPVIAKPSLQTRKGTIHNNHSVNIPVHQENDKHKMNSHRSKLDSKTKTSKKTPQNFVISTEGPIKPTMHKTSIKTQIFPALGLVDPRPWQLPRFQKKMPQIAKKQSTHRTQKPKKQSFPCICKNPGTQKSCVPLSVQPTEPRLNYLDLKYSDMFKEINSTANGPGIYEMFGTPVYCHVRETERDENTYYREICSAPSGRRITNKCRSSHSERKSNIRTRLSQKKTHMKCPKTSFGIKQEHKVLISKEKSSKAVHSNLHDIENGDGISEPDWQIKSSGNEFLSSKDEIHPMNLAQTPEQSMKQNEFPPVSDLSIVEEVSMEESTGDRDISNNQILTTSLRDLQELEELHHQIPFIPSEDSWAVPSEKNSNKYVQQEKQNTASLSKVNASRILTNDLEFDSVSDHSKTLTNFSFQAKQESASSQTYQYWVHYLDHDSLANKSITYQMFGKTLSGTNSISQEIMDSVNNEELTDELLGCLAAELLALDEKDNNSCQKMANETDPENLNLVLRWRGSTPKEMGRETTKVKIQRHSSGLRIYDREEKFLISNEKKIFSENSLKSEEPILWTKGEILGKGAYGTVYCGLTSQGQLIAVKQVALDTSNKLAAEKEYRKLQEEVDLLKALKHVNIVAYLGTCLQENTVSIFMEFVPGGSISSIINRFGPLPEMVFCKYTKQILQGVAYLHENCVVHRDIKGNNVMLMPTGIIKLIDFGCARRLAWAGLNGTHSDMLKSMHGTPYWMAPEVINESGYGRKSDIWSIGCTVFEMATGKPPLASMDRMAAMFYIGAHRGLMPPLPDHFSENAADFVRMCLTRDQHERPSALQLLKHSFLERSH
Procedure: as §1

[21] = target: T21, CSF1R (Homo sapiens, UniProt P07333)
T21 construct: purchased Eurofins DiscoverX (KINOMEscan)
T21 sequence (P07333 20-972): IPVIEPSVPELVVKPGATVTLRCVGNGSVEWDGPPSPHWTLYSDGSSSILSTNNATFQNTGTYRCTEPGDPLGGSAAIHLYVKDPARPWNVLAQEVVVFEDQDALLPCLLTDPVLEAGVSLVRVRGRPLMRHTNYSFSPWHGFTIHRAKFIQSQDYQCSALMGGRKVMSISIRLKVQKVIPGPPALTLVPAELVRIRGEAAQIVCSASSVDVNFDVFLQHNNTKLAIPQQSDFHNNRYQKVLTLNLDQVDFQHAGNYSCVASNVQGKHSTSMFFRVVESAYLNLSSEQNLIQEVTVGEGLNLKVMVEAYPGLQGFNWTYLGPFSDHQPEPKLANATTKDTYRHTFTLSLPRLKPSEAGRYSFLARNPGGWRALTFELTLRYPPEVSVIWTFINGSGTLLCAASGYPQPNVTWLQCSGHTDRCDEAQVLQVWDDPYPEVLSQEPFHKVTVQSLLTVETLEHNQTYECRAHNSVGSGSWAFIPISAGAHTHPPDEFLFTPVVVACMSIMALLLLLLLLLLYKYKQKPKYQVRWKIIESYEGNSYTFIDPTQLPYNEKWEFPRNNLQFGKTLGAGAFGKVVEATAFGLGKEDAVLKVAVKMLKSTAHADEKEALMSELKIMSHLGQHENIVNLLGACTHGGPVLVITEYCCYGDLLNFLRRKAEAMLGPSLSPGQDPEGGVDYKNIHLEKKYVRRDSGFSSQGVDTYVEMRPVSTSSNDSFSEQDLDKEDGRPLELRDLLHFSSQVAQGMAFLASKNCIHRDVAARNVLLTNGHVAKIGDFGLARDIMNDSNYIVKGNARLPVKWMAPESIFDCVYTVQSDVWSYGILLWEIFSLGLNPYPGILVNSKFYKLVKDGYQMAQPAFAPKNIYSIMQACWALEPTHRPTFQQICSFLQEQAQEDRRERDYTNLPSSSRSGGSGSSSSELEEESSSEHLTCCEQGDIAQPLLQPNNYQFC
Procedure: as §1

[22] = target: T22, NEK7 (Homo sapiens, UniProt Q8TDX7)
T22 construct: purchased Eurofins DiscoverX (KINOMEscan)
Procedure: as §1

[23] = target: T23, CSNK1D (Homo sapiens, UniProt P48730)
T23 construct: purchased Eurofins DiscoverX (KINOMEscan)
Procedure: as §1

[24] = target: T24, BLK (Homo sapiens, UniProt P51451)
T24 construct: purchased Eurofins DiscoverX (KINOMEscan)
Procedure: as §1

[25] = target: T25, ADCK4 (Homo sapiens, UniProt Q96D53)
T25 construct: purchased Eurofins DiscoverX (KINOMEscan)
Procedure: as §1

[26] = target: T26, FYN (Homo sapiens, UniProt P06241)
T26 construct: purchased Eurofins DiscoverX (KINOMEscan)
Procedure: as §1

[27] = target: T27, RET(M918T) (Homo sapiens, UniProt P07949, M918T)
T27 construct: purchased Eurofins DiscoverX (KINOMEscan)
Procedure: as §1

[28] = target: T28, ABL1(H396P)-phosphorylated (Homo sapiens, UniProt P00519, H396P)
T28 construct: purchased Eurofins DiscoverX (KINOMEscan)
Procedure: as §1

[29] = target: T29, TSSK3 (Homo sapiens, UniProt Q96PN8)
T29 construct: purchased Eurofins DiscoverX (KINOMEscan)
T29 sequence (Q96PN8 whole entry): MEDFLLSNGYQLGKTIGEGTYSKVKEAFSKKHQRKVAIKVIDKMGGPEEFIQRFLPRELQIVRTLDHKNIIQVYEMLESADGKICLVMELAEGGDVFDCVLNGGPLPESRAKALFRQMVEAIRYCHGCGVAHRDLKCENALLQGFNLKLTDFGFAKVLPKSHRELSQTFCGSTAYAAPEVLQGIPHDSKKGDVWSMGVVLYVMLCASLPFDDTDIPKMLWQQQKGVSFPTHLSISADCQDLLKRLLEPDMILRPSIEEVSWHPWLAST
Procedure: as §1

[30] = target: T30, MLK1 (Homo sapiens, UniProt P80192)
T30 construct: purchased Eurofins DiscoverX (KINOMEscan)
Procedure: as §1

[31] = target: T31, ASK2 (Homo sapiens, UniProt O95382)
T31 construct: purchased Eurofins DiscoverX (KINOMEscan)
Procedure: as §1

[32] = target: T32, TYK2(JH1domain-catalytic) (Homo sapiens, UniProt P29597)
T32 construct: TYK2(JH1domain-catalytic); purchased Eurofins DiscoverX (KINOMEscan)
Procedure: as §1

[33] = target: T33, PIK3CD (Homo sapiens, UniProt O00329)
T33 construct: purchased Eurofins DiscoverX (KINOMEscan)
Procedure: as §1

[34] = target: T34, CDC2L1 (Homo sapiens, UniProt P21127)
T34 construct: purchased Eurofins DiscoverX (KINOMEscan)
Procedure: as §1

[35] = target: T35, KIT(L576P) (Homo sapiens, UniProt P10721, L576P)
T35 construct: purchased Eurofins DiscoverX (KINOMEscan)
Procedure: as §1

[36] = target: T36, CSNK1G1 (Homo sapiens, UniProt Q9HCP0)
T36 construct: purchased Eurofins DiscoverX (KINOMEscan)
T36 sequence (Q9HCP0 whole entry): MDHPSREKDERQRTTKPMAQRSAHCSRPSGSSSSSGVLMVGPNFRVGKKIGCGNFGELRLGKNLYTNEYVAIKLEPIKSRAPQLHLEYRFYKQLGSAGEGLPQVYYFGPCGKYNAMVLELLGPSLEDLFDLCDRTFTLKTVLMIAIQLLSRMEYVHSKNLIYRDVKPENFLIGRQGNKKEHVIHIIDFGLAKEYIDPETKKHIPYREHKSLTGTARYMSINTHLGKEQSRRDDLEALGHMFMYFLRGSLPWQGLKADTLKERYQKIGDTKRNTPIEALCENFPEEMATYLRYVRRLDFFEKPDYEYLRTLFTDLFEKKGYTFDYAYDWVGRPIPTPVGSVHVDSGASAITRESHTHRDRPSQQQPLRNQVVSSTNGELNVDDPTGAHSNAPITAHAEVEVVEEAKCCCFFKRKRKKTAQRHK
Procedure: as §1

[37] = target: T37, DLK (Homo sapiens, UniProt Q12852)
T37 construct: purchased Eurofins DiscoverX (KINOMEscan)
Procedure: as §1

[38] = target: T38, CAMK1G (Homo sapiens, UniProt Q96NX5)
T38 construct: purchased Eurofins DiscoverX (KINOMEscan)
Procedure: as §1

[39] = target: T39, CSNK2A1 (Homo sapiens, UniProt P68400)
T39 construct: purchased Eurofins DiscoverX (KINOMEscan)
T39 sequence (P68400 whole entry): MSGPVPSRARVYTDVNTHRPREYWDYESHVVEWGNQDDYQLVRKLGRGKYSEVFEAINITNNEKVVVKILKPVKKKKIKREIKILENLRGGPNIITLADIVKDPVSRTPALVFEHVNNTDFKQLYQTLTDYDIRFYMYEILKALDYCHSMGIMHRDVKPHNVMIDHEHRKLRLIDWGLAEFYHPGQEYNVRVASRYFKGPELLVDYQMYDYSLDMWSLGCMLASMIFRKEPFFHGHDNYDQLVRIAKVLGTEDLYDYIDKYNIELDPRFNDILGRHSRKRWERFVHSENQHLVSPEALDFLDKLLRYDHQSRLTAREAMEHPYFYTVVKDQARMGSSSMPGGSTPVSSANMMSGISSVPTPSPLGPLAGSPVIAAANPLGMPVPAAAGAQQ
Procedure: as §1

[40] = target: T40, FGFR3 (Homo sapiens, UniProt P22607)
T40 construct: purchased Eurofins DiscoverX (KINOMEscan)
Procedure: as §1

[41] = target: T41, IKK-alpha (Homo sapiens, UniProt O15111)
T41 construct: purchased Eurofins DiscoverX (KINOMEscan)
Procedure: as §1

## Brc1ccc2nccc(Nc3ccc4cn[nH]c4c3)c2c1 [Compound 35, 6-Bromo-N-(1H-indazol-6-yl)quinolin-4-amine]
[1]
  activity at 1 µM: 100%
[2]
  activity at 1 µM: 73%
[3]
  activity at 1 µM: 86%
[4]
  activity at 1 µM: 100%
[5]
  activity at 1 µM: 100%
[6]
  activity at 1 µM: 70%
[7]
  activity at 1 µM: 86%
[8]
  activity at 1 µM: 100%
[9]
  activity at 1 µM: 92%
[10]
  activity at 1 µM: 82%
[11]
  activity at 1 µM: 100%
[12]
  activity at 1 µM: 100%
[13]
  activity at 1 µM: 76%
[14]
  activity at 1 µM: 100%
[15]
  activity at 1 µM: 58%
[16]
  activity at 1 µM: 100%
[17]
  activity at 1 µM: 76%
[18]
  activity at 1 µM: 100%
[19]
  activity at 1 µM: 57%
[20]
  activity at 1 µM: 98%
[21]
  activity at 1 µM: 95%
[22]
  activity at 1 µM: 92%
[23]
  activity at 1 µM: 94%
[24]
  activity at 1 µM: 96%
[25]
  activity at 1 µM: 100%
[26]
  activity at 1 µM: 100%
[27]
  activity at 1 µM: 100%
[28]
  activity at 1 µM: 100%
[29]
  activity at 1 µM: 77%
[30]
  activity at 1 µM: 100%
[31]
  activity at 1 µM: 100%
[32]
  activity at 1 µM: 100%
[33]
  activity at 1 µM: 100%
[34]
  activity at 1 µM: 100%
[35]
  activity at 1 µM: 100%
[36]
  activity at 1 µM: 100%
[37]
  activity at 1 µM: 100%
[38]
  activity at 1 µM: 100%
[39]
  activity at 1 µM: 100%
[40]
  activity at 1 µM: 100%
[41]
  activity at 1 µM: 100%
